Measurements taken from ChEMBL document CHEMBL4002618, “Anticomplement triterpenoids from the roots of Ilex asprella” (2017).
The source made the active and inactive calls. The calls are words filed in the database; no cut-off is given here.

Legend:
Erythrocyte [1] = assay: Anticomplement activity in sheep erythrocytes assessed as concentration required for 50% hemolytic inhibition by classic pathway preincubated for 10 mins with guinea pig serum followed by erythrocyte addition measured after 30 mins by spectrophotometer; format: functional, Ovis aries
Erythrocyte [2] = assay: Anticomplement activity in New Zealand White rabbit erythrocytes assessed as concentration required for 50% hemolytic inhibition by alternative pathway preincubated for 10 mins with normal human serum followed by erythrocyte addition measured after 30 mins by spectrophotometer; format: functional, Oryctolagus cuniculus
Erythrocyte [3] = assay: Anticomplement activity in sheep erythrocytes assessed as inhibition of hemolysis by classical pathway after 30 mins of compound treatment in normal human serum with C1q-depleted sera; format: functional, cell-based; details: Ovis aries
Erythrocyte [4] = assay: Anticomplement activity in sheep erythrocytes assessed as inhibition of hemolysis by classical pathway by measuring hemolysis after 30 mins of compound treatment in normal human serum with C4-depleted sera relative to control; format: functional, Ovis aries; design: scale not given: the % may be the effect or the level left
Erythrocyte [5] = assay: Anticomplement activity in sheep erythrocytes assessed as inhibition of hemolysis by classical pathway after 30 mins of compound treatment in normal human serum with C5-depleted sera; format: functional, cell-based; details: Ovis aries
Erythrocyte [6] = assay: Anticomplement activity in sheep erythrocytes assessed as inhibition of hemolysis by classical pathway by measuring hemolysis after 30 mins of compound treatment in normal human serum with C9-depleted sera relative to control; format: functional, Ovis aries; design: scale not given: the % may be the effect or the level left
Erythrocyte [7] = assay: Anticomplement activity in sheep erythrocytes assessed as inhibition of hemolysis by classical pathway after 30 mins of compound treatment in normal human serum with C2-depleted sera; format: functional, cell-based; details: Ovis aries
Erythrocyte [8] = assay: Anticomplement activity in sheep erythrocytes assessed as inhibition of hemolysis by classical pathway by measuring hemolysis after 30 mins of compound treatment in normal human serum with C3-depleted sera relative to control; format: functional, Ovis aries; design: scale not given: the % may be the effect or the level left

SMILES: C[C@@H]1CC[C@]2(C(=O)O)CC[C@]3(C)C(=CC[C@@H]4[C@@]5(C)CC[C@H](O)C(C)(C)[C@@H]5CC[C@]43C)[C@@H]2[C@]1(C)O [POMOLIC ACID]
- Activity (Erythrocyte [1]): 0.101 mg/mL
- Activity (Erythrocyte [2]): 0.157 mg/mL

SMILES: COC(=O)[C@H]1O[C@@H](O[C@H]2CC[C@@]3(C)[C@@H](CC[C@]4(C)[C@@H]3CC=C3[C@H]5[C@](C(=O)O)(CC[C@@H](C)[C@@]5(C)O)CC[C@]34C)[C@]2(C)CO)[C@H](O)[C@@H](O)[C@@H]1O
- Activity (Erythrocyte [1]; Ovis aries): inactive
- Activity (Erythrocyte [2]; Oryctolagus cuniculus): inactive

SMILES: COC(=O)[C@H]1O[C@@H](O[C@H]2CC[C@]3(C)[C@H]4CC=C5[C@H]6[C@](C(=O)O)(CC[C@@H](C)[C@@]6(C)O)CC[C@@]5(C)[C@]4(C)CC[C@H]3C2(C)C)[C@H](O)[C@@H](O)[C@@H]1O
- Activity (Erythrocyte [1]; Ovis aries): inactive
- Activity (Erythrocyte [2]; Oryctolagus cuniculus): inactive

SMILES: CC(=O)O[C@H]1CC[C@]2(C)[C@H]3CC=C4[C@@H]5[C@@H](C)[C@H](C)CC[C@]5(CO)CC[C@@]4(C)[C@]3(C)CC[C@H]2C1(C)C
- Activity (Erythrocyte [1]): 0.46 mg/mL
- Activity (Erythrocyte [2]; Oryctolagus cuniculus): inactive

SMILES: C[C@H]1[C@H](C)CC[C@]2(C(=O)O)CC[C@]3(C)C(=CC[C@@H]4[C@@]5(C)CC[C@H](O)[C@@](C)(CO)[C@@H]5CC[C@]43C)[C@H]12
- Activity (Erythrocyte [1]): 0.161 mg/mL
- Activity (Erythrocyte [2]): 0.678 mg/mL

SMILES: CC(=O)O[C@H]1[C@H](O[C@H]2CC[C@]3(C)[C@H]4CC=C5[C@H]6[C@](C(=O)O[C@@H]7O[C@H](CO)[C@@H](O)[C@H](O)[C@H]7O)(CC[C@@H](C)[C@@]6(C)O)CC[C@@]5(C)[C@]4(C)CC[C@H]3C2(C)C)OC[C@H](O)[C@@H]1O
- Activity (Erythrocyte [1]; Ovis aries): inactive
- Activity (Erythrocyte [2]; Oryctolagus cuniculus): inactive

SMILES: C[C@H]1CC[C@]2(C(=O)O)CC[C@]3(C)C(=CC[C@@H]4[C@@]5(C)CC[C@H](O)C(C)(C)[C@@H]5CC[C@]43C)[C@@H]2[C@]1(C)O
- Activity (Erythrocyte [1]): 0.237 mg/mL
- Activity (Erythrocyte [2]): 0.579 mg/mL

SMILES: COC(=O)[C@]12CCC(C)(C)C[C@H]1C1=CC[C@@H]3[C@@]4(C)CC[C@H](O)C(C)(C)[C@@H]4CC[C@@]3(C)[C@]1(COC(=O)/C=C/c1ccc(O)cc1)CC2
- Activity (Erythrocyte [3]): inactive
- Activity (Erythrocyte [4]): <18.3%
- Activity (Erythrocyte [1]): 0.094 mg/mL
- Activity (Erythrocyte [5]): inactive
- Activity (Erythrocyte [2]): 0.444 mg/mL
- Activity (Erythrocyte [6]): <18.3%
- Activity (Erythrocyte [7]): inactive
- Activity (Erythrocyte [8]): <18.3%

SMILES: C[C@H]1CC[C@]2(C(=O)O[C@@H]3O[C@H](CO)[C@@H](O)[C@H](O)[C@H]3O)CC[C@]3(C)C(=CC[C@@H]4[C@@]5(C)CC[C@H](O[C@@H]6OC[C@H](O)[C@H](O)[C@H]6O)C(C)(C)[C@@H]5CC[C@]43C)[C@@H]2[C@]1(C)O
- Activity (Erythrocyte [1]; Ovis aries): inactive
- Activity (Erythrocyte [2]; Oryctolagus cuniculus): inactive

SMILES: C=C1[C@@H](O)[C@H](O)C[C@]2(C)[C@H]3CC=C4[C@@H]5[C@@H](C)[C@H](C)CC[C@]5(C(=O)O)CC[C@@]4(C)[C@]3(C)CC[C@@H]12 [ILEKUDINOL B]
- Activity (Erythrocyte [1]): 0.123 mg/mL
- Activity (Erythrocyte [2]): 0.586 mg/mL

SMILES: C[C@@H]1CC[C@]2(C(=O)O[C@@H]3O[C@H](CO)[C@@H](O)[C@H](O)[C@H]3O)CC[C@]3(C)C(=CC[C@@H]4[C@@]5(C)CC[C@H](O)C(C)(C)[C@@H]5CC[C@]43C)[C@@H]2[C@]1(C)O
- Activity (Erythrocyte [1]; Ovis aries): inactive
- Activity (Erythrocyte [2]; Oryctolagus cuniculus): inactive

SMILES: C[C@@H]1CC[C@]2(C(=O)O)CC[C@]3(C)C(=CC[C@@H]4[C@@]5(C)CC[C@H](O)[C@@](C)(CO)[C@@H]5CC[C@]43C)[C@@H]2[C@]1(C)O [ROTUNDIC ACID]
- Activity (Erythrocyte [1]): 0.19 mg/mL
- Activity (Erythrocyte [2]): 0.341 mg/mL

SMILES: COC(=O)[C@H]1O[C@@H](O[C@H]2CC[C@]3(C)[C@H]4CC=C5[C@@H]6[C@H](O)C(C)(C)CC[C@]6(C(=O)O)CC[C@@]5(C)[C@]4(C)CC[C@H]3C2(C)C)[C@H](O)[C@@H](O)[C@@H]1O
- Activity (Erythrocyte [1]; Ovis aries): inactive
- Activity (Erythrocyte [2]; Oryctolagus cuniculus): inactive

SMILES: C[C@H]1CC[C@]2(C(=O)O[C@@H]3O[C@H](CO)[C@@H](O)[C@H](O)[C@H]3O)CC[C@]3(C)C(=CC[C@@H]4[C@@]5(C)CC[C@H](O[C@@H]6OC[C@@H](O)[C@H](O)[C@H]6O)C(C)(C)[C@@H]5CC[C@]43C)[C@@H]2[C@]1(C)O
- Activity (Erythrocyte [1]; Ovis aries): inactive
- Activity (Erythrocyte [2]; Oryctolagus cuniculus): inactive

SMILES: C[C@@H]1CC[C@]2(C(=O)O)CC[C@]3(C)C(=CC[C@@H]4[C@@]5(C)CC[C@H](O[C@@H]6OC[C@H](O)[C@H](O)[C@H]6O)C(C)(C)[C@@H]5CC[C@]43C)[C@@H]2[C@]1(C)O
- Activity (Erythrocyte [1]; Ovis aries): inactive
- Activity (Erythrocyte [2]; Oryctolagus cuniculus): inactive

SMILES: C[C@@H]1CC[C@]2(C(=O)O[C@@H]3O[C@H](CO)[C@@H](O)[C@H](O)[C@H]3O)CC[C@]3(C)C(=CC[C@@H]4[C@@]5(C)CC[C@H](O[C@@H]6OC[C@@H](O)[C@H](O)[C@H]6O)C(C)(C)[C@@H]5CC[C@]43C)[C@@H]2[C@]1(C)O
- Activity (Erythrocyte [1]; Ovis aries): inactive
- Activity (Erythrocyte [2]; Oryctolagus cuniculus): inactive

SMILES: COC(=O)[C@]12CCC(C)(C)C[C@H]1C1=CC[C@@H]3[C@@]4(C)CC[C@H](O)C(C)(C)[C@@H]4CC[C@@]3(C)[C@]1(COC(=O)/C=C/c1ccc(O)c(O)c1)CC2
- Activity (Erythrocyte [3]): inactive
- Activity (Erythrocyte [4]): <18.3%
- Activity (Erythrocyte [1]): 0.063 mg/mL
- Activity (Erythrocyte [5]): inactive
- Activity (Erythrocyte [2]): 0.089 mg/mL
- Activity (Erythrocyte [6]): <18.3%
- Activity (Erythrocyte [7]): inactive
- Activity (Erythrocyte [8]): <18.3%

SMILES: C[C@@H]1CC[C@]2(C(=O)O[C@@H]3O[C@H](CO)[C@@H](O)[C@H](O)[C@H]3O)CC[C@]3(C)C(=CC[C@@H]4[C@@]5(C)CC[C@H](O[C@@H]6OC[C@H](O)[C@H](O)[C@H]6O)C(C)(C)[C@@H]5CC[C@]43C)[C@@H]2[C@]1(C)O
- Activity (Erythrocyte [1]; Ovis aries): inactive
- Activity (Erythrocyte [2]; Oryctolagus cuniculus): inactive

SMILES: C=C1[C@@H](O)[C@H](O)C[C@]2(C)[C@H]3[C@@H]4O[C@@H]4[C@]45OC(=O)[C@@]6(CCC(C)(C)C[C@H]64)CC[C@@]5(C)[C@]3(C)CC[C@@H]12
- Activity (Erythrocyte [1]): 0.357 mg/mL
- Activity (Erythrocyte [2]): 0.781 mg/mL

SMILES: C[C@H]1[C@H](C)CC[C@]2(C(=O)O)CC[C@]3(C)C(=CC[C@@H]4[C@@]5(C)CC[C@H](O)C(C)(C)[C@@H]5CC[C@]43C)[C@H]12 [URSOLIC ACID]
- Activity (Erythrocyte [1]): 0.278 mg/mL
- Activity (Erythrocyte [2]): 0.493 mg/mL

SMILES: C=C1[C@@H](O)[C@H](O)C[C@]2(C)[C@H]3C=C[C@]45OC(=O)[C@@]6(CC[C@@H](C)[C@H](C)[C@H]64)CC[C@@]5(C)[C@]3(C)CC[C@@H]12 [ILEKUDINOL A]
- Activity (Erythrocyte [1]): 0.248 mg/mL
- Activity (Erythrocyte [2]): 0.658 mg/mL

SMILES: COC(=O)[C@]12CC[C@@H](C)[C@@](C)(O)[C@H]1C1=CC[C@@H]3[C@@]4(C)CC[C@H](O)C(C)(C)[C@@H]4CC[C@@]3(C)[C@]1(COC(=O)/C=C/c1ccc(O)c(OC)c1)CC2
- Activity (Erythrocyte [1]): 0.131 mg/mL
- Activity (Erythrocyte [2]): 0.319 mg/mL

SMILES: CC1(C)CC[C@]2(C(=O)O)CC[C@]3(C)C(=CC[C@@H]4[C@@]5(C)CC[C@H](O[C@@H]6OC[C@H](O)[C@H](O)[C@H]6O)C(C)(C)[C@@H]5CC[C@]43C)[C@@H]2[C@@H]1O
- Activity (Erythrocyte [1]; Ovis aries): inactive
- Activity (Erythrocyte [2]; Oryctolagus cuniculus): inactive

SMILES: C[C@H]1[C@H](C)CC[C@]2(C(=O)O)CC[C@]3(C)C(=CC[C@@H]4[C@@]5(C)C[C@H](O)[C@H](O)[C@@](C)(CO)[C@@H]5CC[C@]43C)[C@H]12
- Activity (Erythrocyte [1]): 0.197 mg/mL
- Activity (Erythrocyte [2]): 0.212 mg/mL

SMILES: C=C1CC[C@@]23CC[C@]4(C)[C@@](OC2=O)([C@@H]3[C@H]1C)[C@H]1O[C@H]1[C@@H]1[C@@]2(C)C=C(O)C(=O)C(C)=C2[C@H](O)C[C@]14C
- Activity (Erythrocyte [1]): 0.236 mg/mL
- Activity (Erythrocyte [2]): 0.656 mg/mL

SMILES: C=C1[C@@H](O)[C@H](O)C[C@]2(C)[C@H]3[C@@H]4O[C@@H]4[C@]45OC(=O)[C@@]6(CC[C@@H](C)[C@H](C)[C@H]64)CC[C@@]5(C)[C@]3(C)CC[C@@H]12 [ULMOIDOL]
- Activity (Erythrocyte [1]): 0.429 mg/mL
- Activity (Erythrocyte [2]): 0.794 mg/mL

SMILES: COC(=O)[C@]12CC[C@@H](C)[C@H](C)[C@H]1C1=CC[C@@H]3[C@@]4(C)CC[C@H](O)C(C)(C)[C@@H]4CC[C@@]3(C)[C@]1(COC(=O)/C=C/c1ccc(O)c(O)c1)CC2
- Activity (Erythrocyte [3]): inactive
- Activity (Erythrocyte [4]): <18.3%
- Activity (Erythrocyte [1]): 0.058 mg/mL
- Activity (Erythrocyte [5]): inactive
- Activity (Erythrocyte [2]): 0.08 mg/mL
- Activity (Erythrocyte [6]): <18.3%
- Activity (Erythrocyte [7]): inactive
- Activity (Erythrocyte [8]): <18.3%

SMILES: COC(=O)[C@H]1O[C@@H](O[C@H]2CC[C@]3(C)[C@H]4CC=C5[C@H]6[C@](C(=O)O)(CC[C@H](C)[C@@]6(C)O)CC[C@@]5(C)[C@]4(C)CC[C@H]3C2(C)C)[C@H](O)[C@@H](O)[C@@H]1O
- Activity (Erythrocyte [1]; Ovis aries): inactive
- Activity (Erythrocyte [2]; Oryctolagus cuniculus): inactive

SMILES: CC1=C2[C@H](O)C[C@]3(C)[C@H]([C@@H]4O[C@@H]4[C@]45OC(=O)[C@@]6(CC[C@@H](C)[C@H](C)[C@H]64)CC[C@]53C)[C@@]2(C)C=C(O)C1=O
- Activity (Erythrocyte [1]): 0.505 mg/mL
- Activity (Erythrocyte [2]): 0.774 mg/mL

SMILES: CC1=C2[C@H](O)C[C@]3(C)[C@H]([C@@H]4O[C@@H]4[C@]45OC(=O)[C@@]6(CCC(C)(C)C[C@H]64)CC[C@]53C)[C@@]2(C)C=C(O)C1=O
- Activity (Erythrocyte [1]): 0.38 mg/mL
- Activity (Erythrocyte [2]): 0.944 mg/mL

SMILES: C[C@H]1[C@H](C)CC[C@@]23CC[C@]4(C)[C@@](OC2=O)([C@H]13)[C@H]1O[C@H]1[C@@H]1[C@@]2(C)CC(=O)[C@H](O)[C@@H](C)[C@@H]2[C@H](O)C[C@]14C
- Activity (Erythrocyte [1]): 0.592 mg/mL
- Activity (Erythrocyte [2]): 0.734 mg/mL
